Measurements reported in patent publication US20240262845A1, “PYRIDINIUM SALTS, METHODS OF MAKING, AND METHODS OF USE” (UNIVERSITY OF WYOMING, priority 2023, published 2024).
“Also recorded” adds a separate entry of the source. Counter-ions that a name gives are not always drawn.

What was measured:
HEK293T lysates = experiment: Chemoproteomic profiling of HEK293T lysates (protein-level enrichment); type: biochemical, human; details: for Western blot (streptavidin-HRP) proteome labeling profile of elutions: 0-100 μM probe, with/without light, before digestion; for number of proteins identified (from ≥2 unique peptides) showing ≥2-fold enrichment versus DMSO: about 100 μM probe, 5 mg/mL lysate, 60 min incubation, 20 min irradiation: 302 nm (1a), 320 nm (1b), 440 nm (2b)
Protocol: In lysate tryptophan probe treatment for protein-level characterization: HEK293T cell pellets were suspended in native lysis buffer (50 mM HEPES pH 7.5, 150 mM sodium chloride (NaCl), 1.5 mM MgCl2, 1 mM DTT, 0.8% NP-40, 5% glycerol, and 1× protease inhibitors (Thermo)) at 2× the pellet volume. The samples were sonicated on ice for 30 seconds at 20% amplitude with a 2 second pulse ON and 3 second pulse OFF. Cell debris was removed by centrifugation at 20,000×g for 20 minutes at 4° C. Protein concentration was determined by bicinchoninic acid (BCA) (Pierce) and diluted down to 5 mg/mL with ChemProt buffer (50 mM HEPES pH 7.5, 150 mM NaCl, 1.5 mM MgCl2, 1 mM DTT, 0.4% NP-40, and 1x protease inhibitors (Thermo). 5 mg cell lysates were treated with 100× stocks of the tryptophan probes (pyridinium salts 1a, 1b, and 2b) to generate final concentrations (0, 1, 10, and 100 μM) in 1% DMSO. Lysates were incubated for 1 hour at 4° C. followed by photo-activation at respective wavelengths for 20 minutes at 4° C. Excess probe was removed using Sephadex G-25 PD-10 desalting columns (GE Healthcare) pre-equilibrated with 50 mM HEPES pH 7.5, 150 mM NaCl, 1.5 mM MgCl2, and 0.4% NP-40. The samples were then treated with 100 μL Neutravidin resin as a 50% slurry (Peirce). The samples were incubated overnight on a rotating apparatus at R.T. The following day, the beads were transferred to a MobiCol column (Boca Scientific), washed 3× with phosphate buffered saline (PBS) containing 0.2% SDS, washed 3× with PBS, and the enriched proteins were eluted with 2× NuPAGE lithium dodecyl sulfate (LDS) containing 10 mM DTT (Pierce) and heated for 30 minutes at 55° C. The eluent was collected and subsequently treated with 20 mM iodoacetamide (Pierce) for 30 minutes at R.T. protected from light. Samples were passed through detergent removal columns (Pierce) that were pre-equilibrated with 50 mM HEPES pH 8.0. The samples were treated with 2.5 μg Trypsin/LysC (Promega) at 37° C. for 16 hours. The following day, the sample was collected and prepped for isobaric labeling with TMT reagents (Thermo) as specified by the manufacturer.
Quantitative proteomics by two-dimensional nano liquid chromatography-tandem mass spectrometry (nLC-MS/MS): For protein-level characterization, the TMT-labeled sample were reconstituted in 0.1% formic acid (FA)/2% acetonitrile for offline high-pH reversed phase separation (RP10) using a Dionex UltiMate 3000 high-performance liquid chromatography (HPLC) system with fraction collection using Chromeleon v.6.8 (Thermo) software. Separation was achieved on a Waters Xbridge C18 3.5 μm 2.1×150 mm HPLC column (Waters) using a flow rate of 250 μL min-1 and the following ternary gradient and conditions: mobile phase A=water (HPLC grade), mobile phase B=acetonitrile (HPLC grade), and mobile phase C=200 mM ammonium acetate, pH 10. Mobile phase C is held at 10% throughout gradient. Starting conditions are 89% mobile phase A and 1% mobile phase B, ramping mobile phase B to 80% over 65 min. Fractions were collected in 96-well plates at 100 sec per well. Fractions were reduced down to 12 fractions, dried, and reconstituted in 0.1% FA/2% acetonitrile for nLC-MS/MS. All data were acquired using a Orbitrap Fusion Lumos coupled to an Easy-nLC 1200 nanoflow liquid chromatograph operating at 300 nL min-1. Peptides were cleaned up using a 1 cm online custom trap then eluted on a custom 20 cm laser pulled 75 μm column with C18 resin. Peptides were quantified using the synchronous precursor selection (SPS-MS3) or HCD method for TMT quantitation with 120k MS1 resolving power, 50 ms max injection time and 100% AGC. MS2 spectra were selected using the top ten most abundant features with a charge state between 2-6 using CID (collision induced dissociation) in the ion trap. The AGC was set to 100% with an isolation width of 0.7. MS3 was performed on the top 10 most abundant MS2 features between 400-1600 amu with a collision energy of 55%, AGC of 250%, and 50k resolution. […]

lysozyme = molecular target: T1, lysozyme (Gallus gallus, UniProt P00698); experiment: Photochemical labeling of lysozyme with pyridinium salts (General Procedure B, LC/MS); type: biochemical, chicken; details: lysozyme labeling
T1 construct: Lysozyme (from chicken egg white, >40,000 units/mg of protein); purchased Sigma Aldrich; host or cells: chicken egg white
T1 sequence (P00698 19-147): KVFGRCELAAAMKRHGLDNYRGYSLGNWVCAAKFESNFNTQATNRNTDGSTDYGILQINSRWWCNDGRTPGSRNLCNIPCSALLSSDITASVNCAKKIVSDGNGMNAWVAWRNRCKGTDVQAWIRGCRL
Protocol: General Procedure B: Photochemical Irradiation of Peptides and Proteins: To a 2 mL Pyrex LC/MS vial (Thermo model #03-391-39) were sequentially added solutions containing the desired biomolecule, glutathione (GSH), pyridinium salt, and ammonium acetate (NH4OAc). The resulting solution was diluted to a final volume of 500 μL and then sparged using nitrogen for a minimum of 30 minutes prior to irradiation. The actively sparging solution was then placed in an EvoluChem™ PhotoRedOx Box photoreactor that was equipped with a Kessil, PR160 427 nm LED Lamp and was then irradiated (100% lamp intensity) for the designated time at room temperature while maintaining active sparging. The resultant reaction mixture was then analyzed directly by LC/MS. Analysis of labeling outcomes using LC/MS was performed either by extracted ion chromatogram intensities (method A) or by integrating the area under the peaks associated with peptide content (method B). These values were totaled, and estimated percentages were assigned according to relative intensities of peaks or ion counts.
Labeling of Lysozyme with Pyridinium Salt 2a (Lysozyme-2a Conjugate). Labeling of lysozyme (14.3 kDa) with the pyridinium salt 2a was performed by following general procedure B using the following solutions: lysozyme (27 μL, 182 μM, 10 μM final concentration), pyridinium salt 2a (200 μL, 500 μM, 200 μM final concentration), NH4OAc (100 μL, 100 mM, pH=6.9, 20 mM final concentration), glutathione (15 μL, 10 mM, 300 μM final concentration), and water (158 μL) with a 100% intensity irradiation time of 60 minutes. The reaction mixture was analyzed directly by LC/MS using method A and was estimated to have proceeded in >95% conversion and a 10.9:1 mono:di labeled ratio and 10% glutathionylation of all unlabeled and labeled protein content was observed.
Labeling of Lysozyme with Pyridinium Salt 2b (Lysozyme-2b Conjugate). Labeling of lysozyme (14.3 kDa) with the pyridinium salt 2b was performed by following general procedure Busing the following solutions: lysozyme (19 μL, 262 μM, […]), 2b (181 μL, 554 μM, 200 μM final concentration), NH4OAc (50 μL, 200 mM, pH=6.9, 20 mM final concentration), glutathione (50 μL, 3 mM, 300 μM final concentration), and water (200 μL) with a 100% intensity irradiation time of 10 minutes. The reaction mixture was analyzed directly by LC/MS using method A and was estimated to have proceeded with 83% conversion. […]
Labeling of Lysozyme with Pyridinium Salt 2c (Lysozyme-2c Conjugate). […] The reaction mixture was analyzed directly by LC/MS using method A and was estimated to have proceeded with 85% conversion and a 3.7:1 mono:di labeled ratio and 10% glutathionylation of all protein content was observed. […]

labeling rate compared to pyridinium salt 2a (lysozyme)	Structure (SMILES)	Western blot (streptavidin-HRP) proteome labeling profile of elutions (HEK293T lysates)	number of proteins identified (from ≥2 unique peptides) showing ≥2-fold enrichment versus DMSO (HEK293T lysates)
	Cc1cc(C)[n+](N(C)C(=O)OCCCCC[C@@H]2SC[C@@H]3NC(=O)N[C@@H]32)c(C)c1 [pyridinium salt 1a, 2,4,6-trimethyl-1-(methyl(((5-((3aS,4S,6aR)-2-oxohexahydro-1H-thieno[3,4-d]imidazol-4-yl)pentyl)oxy)carbonyl)amino)pyridin-1-ium tetrafluoroborate]	concentration and optically dependent proteome labeling profiles; also recorded: loss of signal	185
	Cc1cc(-c2ccccc2)cc(C)[n+]1N(C)C(=O)OCCCCC[C@@H]1SC[C@@H]2NC(=O)N[C@@H]21 [pyridinium salt 1b, 2,6-dimethyl-1-(methyl(((5-((3aS,4S,6aR)-2-oxohexahydro-1H-thieno[3,4-d]imidazole-4-yl)pentyl)oxy)carbonyl)amino)-4-phenylpyridin-1-ium tetrafluoroborate]	concentration and optically dependent proteome labeling profiles; also recorded: dose-response profiles	365
enhanced rate	COc1ccc2cc(-c3cc(C)[n+](N(C)C(=O)OCCCCCC[C@H]4NC(=O)N[C@H]4C)c(C)c3)ccc2c1 [pyridinium salt 2c, 4-(6-methoxynaphthalen-2-yl)-2,6-dimethyl-1-(methyl(((6-((4R,5S)-5-methyl-2-oxoimidazolidin-4-yl)hexyl)oxy)carbonyl)amino)pyridin-1-ium trifluoroacetate]		
